Results as given in US20240174684A1, “INHIBITORS OF cGAS ACTIVITY AS THERAPEUTIC AGENTS” (BELLBROOK LABS, LLC, priority 2021, published 2024).
Where two headings read alike, the source gives them in different places.

What was measured:
cGAS = cGAS (Homo sapiens, UniProt Q8N884); assay: Transcreener cGAS enzymatic assay (FP); assay type: biochemical
Procedure: Structural, biochemical and biophysical analysis and selectivity profiling: Potency and MOA studies, including Mn^2+ sensitivity, were performed using the Transcreener cGAS enzymatic assay, which is manufactured at BellBrook Labs (Fitchburg, Wisconsin, USA). This homogenous cGAS enzymatic assay was developed with fluorescence polarization (FP) and time-resolved Forster resonance energy transfer (TR-FRET) readouts, as described in International Patent Publication WO 2020/142729, incorporated by reference herein in its entirety. Plates are read on a PHERAstar FSX multimode reader (BMG). The compounds of the disclosure were tested for inhibition of cGAS ([…]) using this cGAS enzymatic assay under standard conditions (100 μM ATP and GTP, 62.5 nM bp ISD, 60 minute reactions), high ATP and GTP (1 mM) to mimic physiological conditions, in the presence of 200 μM MnCl2, and with mouse cGAS under standard conditions.
The IC50 values for FP under standard and under physiological conditions were determined for several exemplary compounds of the invention. The relative activities for FP Standard IC50 are shown in Table 2 below, where A represents <50 nM; B represents 50-100 nM; C represents 100-200 nM; D represents 200 nM-1μM; and E represents 1-10 μM. For the relative activities for FP Physiological IC50, A′ represents <200 nM; B′ represents 200-500 nM; C′ represents 500 nM-1μM; D′ represents 1-5 μM; and E′ represents >5 μM.

[1] = tested on: IFNβ production in THP-1 cells; assay: IFNβ ELISA in THP-1 cells; assay type: cell-based, human; details: Homo sapiens; THP-1 cells
Text: (§1) Cellular assays: The human monocyte cell line THP-1 and human primary PBMCs were used to evaluate the cellular activity of compounds with good biochemical potency. These cells produce a robust cGAS/STING-dependent type I IFN response when stimulated with dsDNA and other pathogen-associated molecular patterns, which was detected using a standard ELISA for IFNβ (R&D Systems). The TBK1 inhibitor, BX-795, which acts downstream of cGAS/STING, was used as a probe.
CETSA was also used to confirm that the compounds are binding to cGAS in cells; THP-1 cells are used for this analysis. Compounds were tested in dose response mode by incubating with cells for 1.5 hours at 37° C., followed by pelleting and re-suspending in PBS, heating to 51.5° C. for 3 min and cooling to room temp. Cells were then lysed, debris, including denatured cGAS, was pelleted and the supernatant was analyzed for soluble cGAS by Western Blot using anti-cGAS primary Ab (Cell Signaling). Band intensity was analyzed using Image J software. Stimulation with cGAMP directly activates STING, circumventing cGAS; this was used to determine if compounds had effects on downstream components of cGAS/STING signaling. The IFN-6 ELISA was used as the primary measure of cellular potency and selectivity (Table 3) and used the reporter gene assays for assessing off-target activity with other pattern recognition receptors.
(§2) The ICso values for IFNB ELISA stimulated with THP-1, PBMC, DNA, and cGAMP were determined for several exemplary compounds of the invention, and are provided in Table 3 where A represents <1 μM; B represents 1-2.5 μM; C represents 2.5-10 μM; D represents 10-20 μM; and E represents >20 μM.

[2] = tested on: IFN-β production in PBMCs; assay: IFNβ ELISA in human primary PBMCs; assay type: cell-based; details: PBMC
Text: as §1, §2
The reporter gene assays were used to assess off-target activity with IRF30Luc (RIG-1) or NFKB (TLR4); CellTiter Glo (ATP levels) and Presto Blue (reducing equivalents) were used to assess cytotoxicity; all assays were performed in dose response mode. […] The inventors recently began using human PBMCs to assess cellular potency in a more physiologically relevant context.

MDR1 (P-glycoprotein) = assay: MDCK-MDR1 permeability A→B; assay type: in vitro ADME, Canine; details: dog; MDCK cells expressing human MDR1, A→B; read-out: MDCK-MDR Permeability A→B
Procedure: (§3) ADME studies: Compound A and the compounds of the disclosure were tested for aqueous solubility (KSOL), metabolic stability (human and mouse […]) and permeability (Caco-2 and/or MDR1-MDCK cells) to provide an initial indication of oral bioavailability.
(§4) The favorable physicochemical properties are reflected in promising results in in vitro ADME tests. […] Metabolic stability, which was routinely measured with mouse and human hepatocytes, is outstanding, with t, greater than 2 hours for all of the compounds of the disclosure in which it has been measured. Cell permeability was measured using MDCK cells expressing human MDR1 (P-glycoprotein) to assess passive permeability as well as active transport out of the cell. […] Numerous compounds in Table 1 meet these permeability criteria, which is consistent with their design for TPSA <140 Å^2 and increased lipophilicity.
(§5) The MDCK-MDR1 permeability A ->B is shown in Table 2 below, where A represents 5-10 cm/s×10^−6; B represents 1-5 cm/s×10^−6; and C represents <1 cm/ss×10^−6. The metabolic stability half time, in both mouse and human hepatocytes, is also shown in Table 2 below, where A′ represents 100-200 minutes; B′ represents 200-300 minutes; and C′ represents >300 minutes.

[3] = tested on: MDCK cells expressing human MDR1 (P-glycoprotein); assay: MDCK-MDR1 permeability A→B; assay type: in vitro ADME, Canine
Procedure: as §3, §4, §5

[4] = high ATP and GTP (1 mM) to mimic physiological conditions, read-out: IC50 FP Physiological
[5] = standard conditions: 100 μM ATP and GTP, 62.5 nM bp ISD, 60 minute reactions, read-out: IC50 FP Standard

Sequence of cGAS (Q8N884 whole entry): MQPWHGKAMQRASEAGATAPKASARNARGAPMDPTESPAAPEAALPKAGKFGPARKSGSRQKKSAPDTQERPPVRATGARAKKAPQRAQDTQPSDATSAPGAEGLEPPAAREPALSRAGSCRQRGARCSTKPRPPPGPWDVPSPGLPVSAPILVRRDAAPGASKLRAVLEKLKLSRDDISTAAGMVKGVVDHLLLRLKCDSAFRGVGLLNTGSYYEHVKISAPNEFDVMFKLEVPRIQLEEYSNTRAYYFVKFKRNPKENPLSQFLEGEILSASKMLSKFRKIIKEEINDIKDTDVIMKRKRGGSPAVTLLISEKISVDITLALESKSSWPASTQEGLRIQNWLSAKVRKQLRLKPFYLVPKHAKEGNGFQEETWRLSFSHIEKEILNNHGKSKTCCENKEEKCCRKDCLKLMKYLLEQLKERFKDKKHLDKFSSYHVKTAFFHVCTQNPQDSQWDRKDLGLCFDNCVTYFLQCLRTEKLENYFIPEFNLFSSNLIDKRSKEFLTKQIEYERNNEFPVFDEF

Structure (SMILES)	IC50 (cGAS; [4])	IC50 (cGAS; [5])	IC50 [1]	IC50 [2]	Papp A→B (MDR1 (P-glycoprotein))	MDCK-MDR Permeability A→B [3]
Cc1nc(N2C[C@@H](CC(=O)Nc3ccc(N4CCCCC4)cc3)C[C@H]2C(=O)O)c2oc3ccccc3c2n1 [Compound 7, (2S,4R)-1-(2-methylbenzofuro[3,2-d]pyrimidin-4-yl)-4-(2-oxo-2-((4-(piperidin-1-yl)phenyl)amino)ethyl)pyrrolidine-2-carboxylic acid]	1000 to 5000 nM	200 to 1000 nM	10 to 20 µM	10 to 20 µM	1 to 5 ×10⁻⁶ cm/s	–
Cc1nc(N2C[C@@H](CC(=O)Nc3ccc(OC(F)(F)F)cc3)C[C@H]2C(=O)O)c2oc3ccccc3c2n1 [Compound 12, (2S,4R)-1-(2-methylbenzofuro[3,2-d]pyrimidin-4-yl)-4-(2-oxo-2-((4-(trifluoromethoxy)phenyl)amino)ethyl)pyrrolidine-2-carboxylic acid]	> 5000 nM	200 to 1000 nM	1 to 2.5 µM	2.5 to 10 µM	5 to 10 ×10⁻⁶ cm/s	–
Cc1nc(N2C[C@@H](CC(=O)Nc3cccc(Cl)c3)C[C@H]2C(=O)O)c2oc3ccccc3c2n1 [Compound 22, (2S,4R)-4-(2-((3-chlorophenyl)amino)-2-oxoethyl)-1-(2-methylbenzofuro[3,2-d]pyrimidin-4-yl)pyrrolidine-2-carboxylic acid]	1000 to 5000 nM	100 to 200 nM	2.5 to 10 µM	10 to 20 µM	1 to 5 ×10⁻⁶ cm/s	–
Cc1nc(N2C[C@@H](CC(=O)Nc3ccc(C(F)(F)F)cc3)C[C@H]2C(=O)O)c2oc3ccccc3c2n1 [Compound 24, (28.4R)-1-(2-methylbenzofuro[3,2-d]pyrimidin-4-yl)-4-(2-oxo-2-((4-(trifluoromethyl)phenyl)amino)ethyl)pyrrolidine-2-carboxylic acid]	1000 to 5000 nM	200 to 1000 nM	10 to 20 µM	10 to 20 µM	1 to 5 ×10⁻⁶ cm/s	–
Cc1nc(N2C[C@@H](CC(=O)Nc3ccc4cnccc4c3)C[C@H]2C(=O)O)c2oc3ccccc3c2n1 [Compound 33, (2S,4R)-4-(2-(isoquinolin-6-ylamino)-2-oxoethyl)-1-(2-methylbenzofuro[3,2-d]pyrimidin-4-yl)pyrrolidine-2-carboxylic acid]	1000 to 5000 nM	100 to 200 nM	2.5 to 10 µM	10 to 20 µM	–	C (C represents <1 cm/ss×10^−6)
Cc1nc(N2C[C@@H](CC(=O)Nc3ccc4ccncc4c3)C[C@H]2C(=O)O)c2oc3ccccc3c2n1 [Compound 34, (28.4R)-4-(2-(isoquinolin-7-ylamino)-2-oxoethyl)-1-(2-methylbenzofuro[3,2-d]pyrimidin-4-yl)pyrrolidine-2-carboxylic acid]	200 to 500 nM	< 50 nM	2.5 to 10 µM	2.5 to 10 µM	1 to 5 ×10⁻⁶ cm/s	–
Cc1nc(N2C[C@@H](CC(=O)Nc3ccc4cccnc4c3)C[C@H]2C(=O)O)c2oc3ccccc3c2n1 [Compound 35, (28,4R)-1-(2-methylbenzofuro[3,2-d]pyrimidin-4-yl)-4-(2-oxo-2-(quinolin-7-ylamino)ethyl)pyrrolidine-2-carboxylic acid]	500 to 1000 nM	< 50 nM	2.5 to 10 µM	2.5 to 10 µM	1 to 5 ×10⁻⁶ cm/s	–
Cc1nc(N2C[C@@H](CC(=O)Nc3ccc(-c4ccc5cn[nH]c5c4)cc3)C[C@H]2C(=O)O)c2oc3ccccc3c2n1 [Compound 39, (28.4R)-4-(2-((4-(1H-indazol-6-yl)phenyl)amino)-2-oxoethyl)-1-(2-methylbenzofuro[3,2-d]pyrimidin-4-yl)pyrrolidine-2-carboxylic acid]	500 to 1000 nM	100 to 200 nM	2.5 to 10 µM	2.5 to 10 µM	–	–
Cc1nc(N2C[C@@H](CC(=O)Nc3ccc(-c4ccc(N)nc4)cc3)C[C@H]2C(=O)O)c2oc3ccccc3c2n1 [Compound 40, (2S,4R)-4-(2-((4-(6-aminopyridin-3-yl)phenyl)amino)-2-oxoethyl)-1-(2-methylbenzofuro[3,2-d]pyrimidin-4-yl)pyrrolidine-2-carboxylic acid]	200 to 500 nM	< 50 nM	10 to 20 µM	> 20 µM	–	–
Cc1nc(N2C[C@@H](CC(=O)Nc3ccc(-c4ccnc(N)c4)cc3)C[C@H]2C(=O)O)c2oc3ccccc3c2n1 [Compound 41, (28.4R)-4-(2-((4-(2-aminopyridin-4-yl)phenyl)amino)-2-oxoethyl)-1-(2-methylbenzofuro[3,2-d]pyrimidin-4-yl)pyrrolidine-2-carboxylic acid]	500 to 1000 nM	100 to 200 nM	> 20 µM	> 20 µM	–	–
Cc1nc(N2C[C@@H](CC(=O)Nc3ccc(-c4cccc(N)n4)cc3)C[C@H]2C(=O)O)c2oc3ccccc3c2n1 [Compound 42, (2S,4R)-4-(2-((4-(6-aminopyridin-2-yl)phenyl)amino)-2-oxoethyl)-1-(2-methylbenzofuro[3.2-d]pyrimidin-4-yl)pyrrolidine-2-carboxylic acid]	500 to 1000 nM	50 to 100 nM	> 20 µM	> 20 µM	–	–
Cc1nc(N2C[C@@H](CC(=O)Nc3ccc(-c4cccnc4N)cc3)C[C@H]2C(=O)O)c2oc3ccccc3c2n1 [Compound 43, (28.4R)-4-(2-((4-(2-aminopyridin-3-yl)phenyl)amino)-2-oxoethyl)-1-(2-methylbenzofuro[3,2-d]pyrimidin-4-yl)pyrrolidine-2-carboxylic acid]	500 to 1000 nM	100 to 200 nM	> 20 µM	> 20 µM	–	–
Cc1nc(N2C[C@@H](CC(=O)Nc3ccc(-c4cccc(O)c4)cc3)C[C@H]2C(=O)O)c2oc3ccccc3c2n1 [Compound 51, (2S,4R)-4-(2-((3′-hydroxy-[1,1′-biphenyl]-4-yl)amino)-2-oxoethyl)-1-(2-methylbenzofuro[3,2-d]pyrimidin-4-yl)pyrrolidine-2-carboxylic acid]	< 200 nM	< 50 nM	10 to 20 µM	> 20 µM	–	–
Cc1nc(N2C[C@@H](CC(=O)Nc3ccc(-c4ccccc4)cn3)C[C@H]2C(=O)O)c2oc3ccccc3c2n1 [Compound 67, (2S,4R)-1-(2-methylbenzofuro[3,2-d]pyrimidin-4-yl)-4-(2-oxo-2-((5-phenylpyridin-2-yl)amino)ethyl)pyrrolidine-2-carboxylic acid]	500 to 1000 nM	50 to 100 nM	2.5 to 10 µM	–	5 to 10 ×10⁻⁶ cm/s	–
